From patent US10060892B2, “Tripodal nitrate receptor” (University of Oregon, priority 2013, dated 2018)

Experiments:
[1] = 1H NMR titration with TBA bromide in 10% DMSO-d6/CDCl3; type: binding; conditions: Br^− (TBA salt), 10% DMSO-d6/CDCl3, 1 mM receptor, 1:1 model
Source text: (§1) To simplify the mode of binding in these receptors, as well as to lower the association constant of nitrate and bromide to a measurable amount, other solvent systems were investigated. Low solubility of the tripodal receptors limited the solvent possibilities. We also aimed to maintain competition between binding of the anion and solvent molecules to provide further evidence for the strong binding of nitrate in competitive solvents, a critical feature for applications in environmental monitoring. […] In addition, DMSO is a strong hydrogen bond acceptor, thus a lower association constant would be expected. Initial upfield shifts, followed by downfield shifts of the urea protons were observed upon the addition of TBANO3 1 mM solutions of 1 in 2% DMSO-d6/CDCl3 and 5% DMSO-d6/CDCl3. The titration curves indicate a more complicated system than a 1:1 model; however, the data still could not be fit to a standard model. […]
(§2) Titrations in 10% DMSO-d6/CDCl3 were performed at a constant 1 mM concentration of 1. The change in chemical shift was monitored throughout the titration and fit to a 1:1 model using linear regression analysis. […] The binding constants of each anion investigated and the calculated total Δδ values based on the determined constant are presented in Table 2. […]

[2] = 1H NMR titration with TBA iodide in 10% DMSO-d6/CDCl3; type: binding; conditions: I^− (TBA salt), 10% DMSO-d6/CDCl3, 1 mM receptor, 1:1 model
Source text: as §1, §2

[3] = 1H NMR titration with TBA nitrate in 10% DMSO-d6/CDCl3; type: binding; conditions: 10% DMSO-d6/CDCl3, from Ka values
Source text: as §1, with “DMSO-d6/CDCl3.” for “DMSO-d6/CDCl3. The titration curves indicate a more complicated system than a 1:1 model; however, the data still could not be fit to a standard model.”
as §2
Similar to 1, host:guest complexes of 2 were investigated through 1H NMR spectroscopy titrations in 10% DMSO-d6/CDCl3. […] The urea protons (H^a and H^b), nitrophenyl protons (H^c and H^d), and core proton (H^core) were monitored throughout the titrations. […]

[4] = 1H NMR titration with TBA chloride in acetone-d6; type: binding; conditions: Cl^− (TBA salt), acetone-d6, 0.5 mM receptor
Description: (§3) Interaction of 1 with anions in solution was investigated by 1H NMR spectroscopy. Initial titration experiments were performed at 0.5 mM of 1 in acetone-d6 due to its limited solubility in other solvents, despite the potential solvent competition as a hydrogen bond acceptor. […] Changes in chemical shifts of H^c and H^d were also observed, but to a lesser extent, with H^d moving upfield. Large downfield shifts of the urea protons indicate hydrogen bonds of the ureas to the anion as the main mode of binding. Change in chemical shift corresponding to the addition of NO3^− or Br^− begins to maximize at approximately 0.5 equiv. of guest, indicating a possible 2:1 binding model in acetone.

[5] = 1H NMR titration with TBA bromide in acetone-d6; conditions: Br^−, acetone-d6, 0.5 mM receptor; lower limit inferred from sharp binding curve, no reproducible fit
Description: as §3

## CC(C)(C)c1ccc(NC(=O)Nc2ccc([N+](=O)[O-])cc2)c(C#Cc2c(F)c(C#Cc3cc(C(C)(C)C)ccc3NC(=O)Nc3ccc([N+](=O)[O-])cc3)c(F)c(C#Cc3cc(C(C)(C)C)ccc3NC(=O)Nc3ccc([N+](=O)[O-])cc3)c2F)c1 [compound 1]
[1]
  Association constant Ka: 8320 (876) M^−1
[2]
  Association constant Ka: 755 (85) M^−1
[3]
  selectivity for nitrate over chloride: moderate selectivity for nitrate
[4]
  1:1 binding constant: 8620 ± 1170 M⁻¹
[5]
  Ka: > 104 M⁻¹

## CC(C)(C)c1ccc(NC(=O)Nc2ccc([N+](=O)[O-])cc2)c(C#Cc2cc(C#Cc3cc(C(C)(C)C)ccc3NC(=O)Nc3ccc([N+](=O)[O-])cc3)cc(C#Cc3cc(C(C)(C)C)ccc3NC(=O)Nc3ccc([N+](=O)[O-])cc3)c2)c1 [compound 2]
[3]
  selectivity for nitrate over chloride: loss in selectivity for NO3^− over Cl^−
